In the assay the test system is NCI-H841 complex tumor spheroid viability. Briefly: Anticancer human tumor NCI-H841 cell line growth inhibition.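 On IC50: spheroids exposed to compounds for 7 days before readout.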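 On viability, T/C: spheroids exposed to compounds for 7 days before readout; 100% = DMSO vehicle control wells.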 The settings on record: for viability, T/C: stronger effect = lower value. The source says: Multicellular complex tumor spheroid response to DNA repair inhibitors in combination with DNA-damaging drugs
This study explores the anticancer activities of DNA-damaging drugs and inhibitors of DNA damage repair, both as single agents and in combinations. Complex tumor spheroids comprised of malignant cells, endothelial cells and mesenchymal stem cells served as an in vitro model for human solid tumors. This model system incorporates physiologically relevant features and patient-derived or established malignant cell lines with clinically relevant genetic alterations from many tumor types. Twenty-six patient-derived or established malignant cell lines were evaluated representing sarcoma, melanoma, small cell lung cancer (SCLC), non-small cell lung cancer (NSCLC), as well as bladder, ovarian and pancreatic cancers. The concentration ranges selected for each drug and investigational agent were based upon clinically achievable concentrations if the clinical Cmax of the agent was known.
Compounds. The drugs and compounds olaparib (NSC753686), talazoparib (NSC767125), berzosertib (NSC777718), elimusertib (NSC800525), nedisertib (NSC802822), VX-984 (NSC792969), AZD-1390 (NSC803789), temozolomide (NSC362856), topotecan (NSC609699), trabectedin (NSC813783), staurosporine (NSC755774), and gemcitabine (NSC613327) were obtained from the National Cancer Institute (NCI) Developmental Therapeutics Program Chemical Repository. The FDA-approved anticancer drug set is available from the Developmental Therapeutics Program at https://dtp.cancer.gov/organization/dscb/obtaining/available_plates.htm. […] The stock solutions were prepared in dimethyl sulfoxide (DMSO, Sigma-Aldrich, St. Louis, MO, cat. D2650) at 400-fold the tested concentration and stored at -70 degrees C. Prior to their use, the stock solutions were diluted in fresh medium and the final DMSO concentration in the assay was 0.25% (v/v). All drugs and investigational agents were tested over a range starting from a high concentration at or near the clinical Cmax and decreasing in half-log increments. If the clinical Cmax for an agent had not been determined, the highest concentration tested was 10 microM.
Cell Lines. The patient-derived cancer cell (PDC) lines: 156681-154-R-J1-PDC, 283228-195-R-J1-PDC, 287954-098-R-J1-PDC, 292921-168-R-J2-PDC, 349418-098-R-PDC, 425362-245-T-J1-PDC, 556581-035-R-J1-PDC, and BL0293-F563-PDC were received from the NCI Patient-Derived Models Repository (PDMR, https://pdmr.cancer.gov). The established cell lines HS-SY-2 (RRID:CVCL_8719), MPNST, and SYO-1 (RRID:CVCL_7146) were obtained from the Sloan Kettering Institute. The alveolar soft parts sarcoma cell line ASPS-1 (RRID:CVCL_S738) was established at the NCI and grown from internal seed stocks. The following established cell lines were purchased from the American Type Culture Collection (ATCC, Manassas, VA): G-401 (ATCC, cat. CRL-1441, RRID:CVCL_0270), SW982 (ATCC, cat. HTB-93, RRID:CVCL_1734), VA-ES-BJ (ATCC, cat. CRL-2138, RRID:CVCL_1785), NCI-H719 (ATCC, cat. CRL-5837, RRID:CVCL_1582), NCI-H196 (ATCC, cat. CRL-5823, RRID:CVCL_1509), NCI-H841 (ATCC, cat. CRL-5845, RRID:CVCL_1595), NCI-H1618 (ATCC, cat. CRL-5879, RRID:CVCL_1480), NCI-H1876 (ATCC, cat. CRL-5902, RRID:CVCL_1503), DMS 114 (ATCC, cat. CRL-2066; RRID:CVCL_1174), NCI-H211 (ATCC, cat. CRL-5824; RRID:CVCL_1529), and SW 1271 (ATCC, cat. CRL-2177, RRID:CVCL_1716). The small cell lung cancer cell line COR-L88 was purchased from Sigma-Aldrich (cat. 92031917-1VL, RRID:CVCL_1141). The non-small cell lung cancer cell lines NCI-H226 (RRID:CVCL_1544) and NCI-H322M (RRID:CVCL_1557) were established at the NCI and grown from internal seed stocks. Pooled donor human umbilical vein endothelial cells (HUVEC, Lonza, cat. CC-2519) and human mesenchymal stem cells (hMSC, Lonza, cat. PT-2501) were purchased from Lonza (Walkersville, MD).
Cell Culture. All cells were maintained in an incubator at 37 degrees C and 5% CO2 with 95% humidity. […]

Where [1] appears, read: compound alone, run of 11/07/2019.
Where [2] appears, read: compound alone, run of 12/16/2019.

Several values for one entry are separate records, joined by “and”; a condition that tells them apart may be missing. Identical values can stand only once. Activity calls are given as the source filed them. How the source made its calls: active means viability on the fitted dose curve at most 10% of control; inactive means the rest.

The term viability, T/C denotes the ratio of treated to control. The IC50 is the point on the concentration scale where inhibition reaches its midpoint. With `CC(C)n1c(=O)n(C)c2cnc3cc(F)c(-c4ccc(OCCCN5CCCCC5)nc4)cc3c21`, the viability, T/C (compound 0.0316 µM) is 96.6% and 93.7% and 101%; the viability, T/C (compound 0.1 µM) was 94.6% and 91.3% and 99.4%; the viability, T/C (compound 0.316 µM) was 93.6% and 95.8% and 99.8%; the viability, T/C (compound 1 µM) was 94.1% and 91.1% and 99.3%; the viability, T/C (compound 3.16 µM) is 91.6% and 80.8% and 97%; the viability, T/C (compound 10 µM) is 88.3% and 76.8% and 90.8%. Moreover, the IC50 (curve of compound) was more than 10000 nM.
With `CC1COCCN1c1cc(-c2ccnn2C)c2ccnc(-c3ccn[nH]3)c2n1` (stereo not given), the viability, T/C was 77.2% and 68.7% and 83.9% (compound 0.0316 µM); 16.2% and 27.3% and 39.8% (compound 0.1 µM); 4.34% and 9.62% and 7.72% (compound 0.316 µM); 1.61% and 3.17% and 2.67% (compound 1 µM); 1.48% and 2.14% and 1.89% (compound 3.16 µM); 1.73% and 2.18% and 2.49% (compound 10 µM). Also, the IC50 (curve of compound) is 52.8 nM and 53.1 nM and 76.6 nM.
With `CC[C@@]1(O)C(=O)OCc2c1cc1n(c2=O)Cc2cc3c(CN(C)C)c(O)ccc3nc2-1`, the viability, T/C is 98.1% [middle of 10 runs] (compound 0.003 µM), 2.24% [middle of 10 runs] (compound 0.03 µM), 1.86% [middle of 10 runs] (compound 0.0949 µM) and 1.86% [middle of 10 runs] (compound 0.3 µM). In addition, the IC50 by setting is: under setting [1], 12 nM [middle of 5 runs]; under setting [2], 15.8 nM [middle of 4 runs].
Turning to `CNCc1ccc(-c2cc(-c3nc(-c4ccc(S(=O)(=O)C(C)C)cc4)cnc3N)on2)cc1`, the viability, T/C (compound 0.00949 µM) is 100% (2×) and 97.3%; the viability, T/C (compound 0.03 µM) was 94.6% and 98.1% and 99.8%; the viability, T/C (compound 0.0949 µM) was 28.9% and 81.8% and 95.3%; the viability, T/C (compound 0.3 µM) was 25.2% and 24% and 63.7%; the viability, T/C (compound 0.949 µM) is 6.79% and 3.39% and 9.67%; the viability, T/C (compound 3 µM) was 3.17% and 1.05% and 2.03%. Moreover, the IC50 (curve of compound) is 66 nM and 179 nM and 400 nM.
Take `COc1cc(C)[nH]c(=O)c1CN1CCc2c(Cl)cc(C(OC)C3COC3)c(Cl)c2C1=O` (stereo not given): the viability, T/C by setting is: (compound 0.0316 µM) 91% and 78.5% and 86.2%; (compound 0.1 µM) 73.6% and 74.6%; (compound 0.316 µM) 73.2% and 67.7%; (compound 1 µM) 65% and 42.6% and 61.8%; (compound 3.16 µM) 60.1% and 38.4% and 55.5%; (compound 10 µM) 54.7% and 35.1% and 51.2%. In addition, the outcome (compound 0.1 µM) was inactive and the outcome (compound 0.316 µM) was inactive.
`COc1cc2c(cc1O)CCNC21CSC2c3c(OC(C)=O)c(C)c4c(c3C(COC1=O)N1C(O)C3Cc5cc(C)c(OC)c(O)c5C(C21)N3C)OCO4` (stereo not given): the viability, T/C was 102% [middle of 10 runs] (compound 30 pM), 99.5% [middle of 10 runs] (compound 94.9 pM), 3.1% [middle of 10 runs] (compound 0.000949 µM) and 0.11% [middle of 4 runs] (compound 0.003 µM). Under setting [2], the IC50 is 0.258 nM [middle of 10 runs].
With `COc1ccc([C@@H](O)c2cc(-c3ncnc4cc(N5CCOCC5)ccc34)c(F)cc2Cl)nn1`, the viability, T/C is 97.7% and 102% and 99.6% (compound 0.0316 µM); 101% and 104% and 99.6% (compound 0.1 µM); 95.7% and 99% and 96.2% (compound 0.316 µM); 93.4% and 89.9% (compound 1 µM); 67% and 34.4% and 73.9% (compound 3.16 µM); 13.7% and 8.86% and 17% (compound 10 µM). Moreover, the outcome (compound 1 µM) was inactive. The IC50 (curve of compound) was 4570 nM and 2150 nM and 5090 nM.
With `Cc1cc(C)c(CNC(=O)c2cc(-c3ccc(CN4CCOCC4)cc3)cc3c2cnn3C2CCCC2)c(=O)[nH]1`, the viability, T/C is, setting by setting: (compound 0.0316 µM) 101% and 99.7% and 102%; (compound 0.1 µM) 103% and 98.5% and 102%; (compound 0.316 µM) 99.7% and 106% and 98.5%; (compound 1 µM) 99.8% and 93.7% and 97.1%; (compound 3.16 µM) 87.3% and 84.7% and 80.8%; (compound 10 µM) 65.2% and 43.9% and 50.7%. The IC50 (curve of compound) is > 10000 nM and 8450 nM.
Turning to `Cc1sc2c(c1C)C(c1ccc(Cl)cc1)=NC(CC(=O)Nc1ccc(O)cc1)c1nnc(C)n1-2` (stereo not given), the viability, T/C is, setting by setting: (compound 0.00949 µM) 104% and 97.9% and 102%; (compound 0.03 µM) 110% and 95.7% and 101%; (compound 0.0949 µM) 87.8% and 91.9% and 91.2%; (compound 0.3 µM) 65.4% and 75.9% and 82.7%; (compound 0.949 µM) 25.2% and 33.3% and 44%; (compound 3 µM) 8.1% and 7.29% and 14.4%. In addition, the IC50 (curve of compound) was 452 nM and 604 nM and 807 nM.
As for `Cn1ncnc1[C@H]1c2n[nH]c(=O)c3cc(F)cc(c23)N[C@@H]1c1ccc(F)cc1`, the viability, T/C is 90.1% and 29.7% and 97.4% (compound 0.00949 µM); 85.4% and 30.6% and 90.1% (compound 0.03 µM); 80.3% and 9.88% and 89.6% (compound 0.0949 µM); 55.7% and 62.9% and 83.3% (compound 0.3 µM); 7.92% and 2.5% and 1.44% (compound 3 µM).
In the case of `Cn1nnc2c(C(N)=O)ncn2c1=O`, the viability, T/C was 101% [middle of 9 runs] (compound 1 µM), 101% [middle of 10 runs] (compound 3.16 µM) and 101% [middle of 10 runs] (compound 10 µM). In addition, the IC50 under setting [1] is > 100000 nM and 17400 nM.
For the molecule `O=C(c1cc(Cc2n[nH]c(=O)c3ccccc23)ccc1F)N1CCN(C(=O)C2CC2)CC1`, the viability, T/C is, setting by setting: (compound 0.0949 µM) 101% and 95.3% and 103%; (compound 0.3 µM) 93.6% and 103%; (compound 0.949 µM) 94.8% and 89.4% and 99.4%; (compound 3 µM) 43.4% and 81.5% and 88.2%; (compound 30 µM) 8.7% and 7.95% and 1.92%. In addition, under “compound 0.3 µM”, the result was inactive. The IC50 (curve of compound) was 2580 nM and 6160 nM and 5100 nM.
`[2H]c1nc(C)nc([2H])c1-c1cc(NC[C@@H](C)c2cccc3c(C(=O)NC)ccnc23)ncn1`: the viability, T/C runs as follows: (compound 0.0316 µM) 100% and 97.5% and 102%; (compound 0.1 µM) 99.4% and 97.2% and 100%; (compound 0.316 µM) 98.4% and 102% and 98.1%; (compound 1 µM) 98.7% and 99.9% and 96.8%; (compound 3.16 µM) 98.2% and 103% and 95.4%; (compound 10 µM) 92.6% and 102% and 96.8%. The IC50 (curve of compound) is more than 10000 nM.

Source of the values: PubChem BioAssay AID1845213 (Molecular Pharmacology Branch, DTP, NCI, 2023).
